Values quoted from earlier work as cited in US5559121A, “Rapamycin formulations for oral administration” (American Home Products Corporation, priority 1995, dated 1996).

How the values were obtained:
allograft rejection = conditions: Calne 1989; Morris and Meiser 1989
tumor = conditions: U.S. Pat. No. 4,885,171 (alone); U.S. Pat. No. 4,401,653 (with picibanil)
[1] = test system: experimental allergic encephalomyelitis; conditions: Martel 1977
adjuvant arthritis = conditions: Martel 1977
IgE-like antibodies = conditions: Martel 1977
[2] = FASEB 3, 3411 (1989) and others
[3] = test system: insulin dependent diabetes mellitus; conditions: Fifth Int. Conf. Inflamm. Res. Assoc. 121 (1990)
[4] = test system: smooth muscle cell proliferation and intimal thickening; conditions: Morris 1992
thymocyte proliferation = conditions: in vitro
[5] = in vivo

| SMILES | effect on growth of Candida albicans (Candida albicans) | effect on growth of Microsporum gypseum (Microsporum gypseum) | inhibiting rejection in vivo in allograft transplantation (allograft rejection) | antitumor activity (tumor) | effectiveness in experimental allergic encephalomyelitis model [1] | effectiveness in adjuvant arthritis model (adjuvant arthritis) | inhibition of the formation of IgE-like antibodies (IgE-like antibodies) | immunosuppressive effects [2] | preventing or treating insulin dependent diabetes mellitus [3] | preventing or treating smooth muscle cell proliferation and intimal thickening following vascular injury [4] | inhibition of thymocyte proliferation (thymocyte proliferation) | immunosuppressive, antifungal and antiinflammatory activity [5] |
| --- | --- | --- | --- | --- | --- | --- | --- | --- | --- | --- | --- | --- |
| CO[C@H]1C[C@@H]2CC[C@@H](C)[C@@](O)(O2)C(=O)C(=O)N2CCCC[C@H]2C(=O)O[C@H]([C@H](C)C[C@@H]2CC[C@@H](O)[C@H](OC)C2)CC(=O)[C@H](C)/C=C(\C)[C@@H](O)[C@@H](OC)C(=O)[C@H](C)C[C@H](C)/C=C/C=C/C=C/1C [Rapamycin, rapamycin] | adversely affects the growth | adversely affects the growth | effectiveness of rapamycin in inhibiting rejection in vivo | antitumor activity | effective | effective | effectively inhibited the formation of IgE-like antibodies | immunosuppressive effects | useful in preventing or treating | useful in preventing or treating | inhibit thymocyte proliferation in vitro | immunosuppressive, antifungal and antiinflammatory activity in vivo |
| C=CC[C@@H]1/C=C(\C)C[C@H](C)C[C@H](OC)[C@H]2O[C@@](O)(C(=O)C(=O)N3CCCC[C@H]3C(=O)O[C@H](/C(C)=C/[C@@H]3CC[C@@H](O)[C@H](OC)C3)[C@H](C)[C@@H](O)CC1=O)[C@H](C)C[C@@H]2OC [FK-506] | – | – | – | – | – | – | – | effective as immunosuppressive agents | – | – | – | – |
